According to patent publication US20020026053A1, “Novel 3-(substituted) -2- indolinones compounds and use thereof as inhibitors of protein kinase activity” (priority 1997, published 2002):
“And” between values parts separate entries of the source, which are not always exact repeats. Equal values may be shown once. Read-outs that look alike come from different tables or passages of the source.

Test system: FLK-1 receptor
Test: FLK-1 Assay (cellular/catalytic ELISA, VEGF-stimulated phosphotyrosine)
Assay type: cell-based
Set-up: concentration or dose not given beside the values
In short: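 Receptor phosphotyrosine ELISA: Flk-1-expressing NIH3T3 C7#3 cells, starved overnight in 0.1% FBS medium, received compound (1:200 final dilution, 0.5% DMSO) for 2 h at 37 °C, then VEGF. Anti-FLK-1-captured receptor was probed with anti-phosphotyrosine UB40 and peroxidase/ABTS read-out, relative to cells without compound.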

SMILES | Flk Kinase % Inhibition (P.110) [%] | Flk Kinase % Inhibition (P.110) (protocol P.110)
CCOc1ccccc1C=C1C(=O)Nc2c(Br)cc(Br)c(C)c21 [10717/H02] | 4.0 | 
Cc1c(Br)cc(Br)c2c1C(=Cc1cccs1)C(=O)N2 [10717/H03] | 8.6 | 
Cc1c(Br)cc(Br)c2c1C(=Cc1cccn1C)C(=O)N2 [10717/H04] | 0.4 | 
COc1ccc(C=C2C(=O)Nc3c(Br)cc(Br)c(C)c32)cc1OC [10720/H04] | −5.8 | 
Cc1c(Br)cc(Br)c2c1C(=Cc1ccccc1O)C(=O)N2 [10720/H05] | −12.3 | 
Cc1c(Br)cc(Br)c2c1C(=Cc1ccccc1)C(=O)N2 [10720/H06] | 22.3 | 
CSc1ccc(C=C2C(=O)Nc3c(Br)cc(Br)c(C)c32)s1 [10720/H07] | −2.9 | 
Cc1cc(O)cc(O)c1C=C1C(=O)Nc2c(Br)cc(Br)c(C)c21 [10720/H08] | −23.7 | 
CCOc1cc(C=C2C(=O)Nc3c(Br)cc(Br)c(C)c32)ccc1O [10720/H09] | −4.5 | 
COc1ccc(O)c(C=C2C(=O)Nc3c(Br)cc(Br)c(C)c32)c1 [10720/H10] | −22.8 | 
Cc1c(Br)cc(Br)c2c1C(=Cc1ncc[nH]1)C(=O)N2 [10720/H11] | −8.8 | 
Cc1c(Br)cc(Br)c2c1C(=Cc1nc3ccccc3n1C)C(=O)N2 [10721/H02] | 5.5 | 
Cc1c(Br)cc(Br)c2c1C(=Cc1nn(C)cc1Cl)C(=O)N2 [10721/H03] | 7.8 | 
Cc1cc(C=C2C(=O)Nc3c(Br)cc(Br)c(C)c32)sc1C [10721/H04] | 0.7 | 
Cc1c(Br)cc(Br)c2c1C(=Cc1cc3c([nH]1)CCCC3)C(=O)N2 [10721/H05] | −8.4 | 
Cc1c(Br)cc(Br)c2c1C(=Cc1cc([N+](=O)[O-])cc(CCl)c1O)C(=O)N2 [10721/H06] | −7.9 | 
Cc1c(Br)cc(Br)c2c1C(=Cc1ccc(Cl)s1)C(=O)N2 [10721/H07] | −7.0 | 
Cc1cc(C)c(C=C2C(=O)Nc3c(Br)cc(Br)c(C)c32)[nH]1 [10721/H08] | −6.8 | 
Cc1c(Br)cc(Br)c2c1C(=Cc1ccc(O)c(C(C)(C)C)c1)C(=O)N2 [10721/H09] | 7.0 | 
Cc1c(Br)cc(Br)c2c1C(=Cc1cc(Br)c(O)c(C(C)(C)C)c1)C(=O)N2 [10721/H10] | 10.2 | 
Cc1c(Br)cc(Br)c2c1C(=Cc1cc(C(C)(C)C)c(O)c(C(C)(C)C)c1)C(=O)N2 [10721/H11] | −6.0 | 
Cc1c(Br)cc(Br)c2c1C(=Cc1cc([N+](=O)[O-])c(O)c(C(C)(C)C)c1)C(=O)N2 [10722/H02] | 4.2 | 
Cc1c(Br)cc(Br)c2c1C(=Cc1c(O)cc(O)cc1O)C(=O)N2 [10722/H03] | 2.1 | 
Cc1c(Br)cc(Br)c2c1C(=Cc1ccc([N+](=O)[O-])s1)C(=O)N2 [10722/H04] | 3.8 | 
Cc1c(Br)cc(Br)c2c1C(=Cc1ccc(C(=O)O)cc1)C(=O)N2 [10722/H05] | 4.3 | 
Cc1c(Br)cc(Br)c2c1C(=Cc1ccc(F)cc1F)C(=O)N2 [10722/H06] | 18.9 | 
Cc1cc(C=C2C(=O)Nc3c(Br)cc(Br)c(C)c32)cc(C)c1O [10722/H07] | 2.3 | 

SMILES | Flk Kinase % Inhibition (P.110) [%] | Flk Kinase % Inhibition (P.110) (protocol P.110)
Cc1c(Br)cc(Br)c2c1C(=Cc1cc(Cl)c(O)c(C(C)(C)C)c1)C(=O)N2 [10722/H08] | −20.3 | 
Cc1c(Br)cc(Br)c2c1C(=Cc1csc([N+](=O)[O-])c1)C(=O)N2 [10722/H09] | 3.3 | 
CCCCN(CCCC)c1ccc(C=C2C(=O)Nc3c(Br)cc(Br)c(C)c32)cc1 [10722/H10] | −14.1 | 
Cc1c(Br)cc(Br)c2c1C(=Cc1ccc(C(F)(F)F)cc1)C(=O)N2 [10722/H11] | −3.3 | 
Cc1c(Br)cc(Br)c2c1C(=Cc1ccc(O)c(O)c1O)C(=O)N2 [10723/H02] | 9.0 | 
COc1cccc(C=C2C(=O)Nc3c(Br)cc(Br)c(C)c32)c1O [10723/H03] | 6.1 | 
Cc1c(Br)cc(Br)c2c1C(=Cc1cc(O)c(O)c(Br)c1)C(=O)N2 [10723/H04] | −20.2 | 
CC(=O)Oc1ccc(C=C2C(=O)Nc3c(Br)cc(Br)c(C)c32)cc1OC(C)=O [10723/H05] | −2.5 | 
Cc1cc(C=C2C(=O)Nc3c(Br)cc(Br)c(C)c32)ccc1O [10723/H06] | 10.6 | 
Cc1c(Br)cc(Br)c2c1C(=Cc1ccccc1Br)C(=O)N2 [10723/H07] | 5.0 | 
Cc1c(Br)cc(Br)c2c1C(=Cc1ccc(O)cc1O)C(=O)N2 [10723/H08] | −4.2 | 
COc1ccc(C=C2C(=O)Nc3c(Br)cc(Br)c(C)c32)c(O)c1 [10723/H09] | −0.4 | 
Cc1c(Br)cc(Br)c2c1C(=Cc1cccc(Br)c1)C(=O)N2 [10723/H10] | −13.4 | 
Cc1c(Br)cc(Br)c2c1C(=Cc1cc(C(C)(C)C)cc(C(C)(C)C)c1O)C(=O)N2 [10723/H11] | −5.1 | 
Cc1c(Br)cc(Br)c2c1C(=Cc1ccc(N(C)C)c3ccccc13)C(=O)N2 [10724/H02] | 11.5 | 
Cc1c(Br)cc(Br)c2c1C(=Cc1ccc(O)c([N+](=O)[O-])c1)C(=O)N2 [10724/H03] | 1.8 | 
Cc1c(Br)cc(Br)c2c1C(=Cc1ccc([N+](=O)[O-])c(O)c1)C(=O)N2 [10724/H04] | −3.0 | 
Cc1c(Br)cc(Br)c2c1C(=Cc1cc3c4c(c1O)CCCN4CCC3)C(=O)N2 [10724/H05] | −0.4 | 
Cc1c(Br)cc(Br)c2c1C(=Cc1cc(C(C)C)c(O)c(C(C)C)c1)C(=O)N2 [10724/H06] | −5.1 | 
Cc1c(Br)cc(Br)c2c1C(=Cc1cc3ccccc3o1)C(=O)N2 [10724/H07] | 1.1 | 
COc1cc(O)c(C=C2C(=O)Nc3c(Br)cc(Br)c(C)c32)c(OC)c1 [10724/H08] | 13.1 | 
Cc1c(Br)cc(Br)c2c1C(=Cc1cccn1-c1ccc(Cl)cc1)C(=O)N2 [10724/H09] | 1.3 | 
CCc1ccc(C=C2C(=O)Nc3c(Br)cc(Br)c(C)c32)o1 [10724/H10] | 5.8 | 
Cc1c(Br)cc(Br)c2c1C(=Cc1sc3scc(C)c3c1C)C(=O)N2 [10724/H11] | 8.6 | 
Cc1c(Br)cc(Br)c2c1C(=Cc1sccc1Br)C(=O)N2 [10725/H02] | −7.6 | 
COc1ccc(Br)c(C=C2C(=O)Nc3c(Br)cc(Br)c(C)c32)c1O [10725/H03] | −5.8 | 
Cc1ccc(C=C2C(=O)Nc3c(Br)cc(Br)c(C)c32)o1 [10725/H04] | −5.1 | 

SMILES | Flk Kinase % Inhibition (P.110) [%] | Flk Kinase % Inhibition (P.110) (protocol P.110)
Cc1cc(C=C2C(=O)Nc3c(Br)cc(Br)c(C)c32)[nH]n1 [10725/H05] | 21.6 | 
COc1cc(C)cc(O)c1C=C1C(=O)Nc2c(Br)cc(Br)c(C)c21 [10725/H06] | 16.1 | 
Cc1c(Br)cc(Br)c2c1C(=Cc1ccc(N3CCN(C=O)CC3)cc1)C(=O)N2 [10725/H07] | 8.6 | 
Cc1c(Br)cc(Br)c2c1C(=Cc1ccc(N3CCOCC3)cc1)C(=O)N2 [10725/H08] | 17.2 | 
COC(=O)Cc1c(Cl)[nH]c(C=C2C(=O)Nc3c(Br)cc(Br)c(C)c32)c1C(=O)OC [10725/H09] | −6.1 | 
Cc1c(Br)cc(Br)c2c1C(=Cc1c(Br)cnn1-c1ccc(Cl)cc1)C(=O)N2 [10725/H10] | 7.8 | 
Cc1c(Br)cc(Br)c2c1C(=Cc1c[nH]cn1)C(=O)N2 [10725/H11] | −40.8 | 
Cc1c(Br)cc(Br)c2c1C(=Cc1ccccc1[N+](=O)[O-])C(=O)N2 [10726/H02] | −8.5 | 
CCOC(=O)c1[nH]c(C=C2C(=O)Nc3c(Br)cc(Br)c(C)c32)c(C(=O)OC)c1C [10726/H03] | 0.4 | 
Cc1cc(C=C2C(=O)Nc3c(Br)cc(Br)c(C)c32)cc(C(C)(C)C)c1O [10726/H04] | 2.5 | 
COc1cccc(C=C2C(=O)Nc3ccc(S(=O)(=O)N4CCOCC4)cc32)c1 [10736/F10] | 7.7 | 
O=C1Nc2ccc(S(=O)(=O)N3CCOCC3)cc2C1=Cc1ccccc1Cl [10736/F11] | 3.7 | 
O=C1Nc2ccc(CCCl)cc2C1=Cc1ccc(Cl)cc1 [10736/G02] | −7.2 | 
O=C1Nc2ccc(CCCl)cc2C1=Cc1ccccc1C(F)(F)F [10736/G03] | 4.5 | 
Cc1cccc(C=C2C(=O)Nc3ccc(CCCl)cc32)c1 [10736/G04] | 13.0 | 
Cc1ccc(C=C2C(=O)Nc3ccc(CCCl)cc32)cc1 [10736/G05] |  | 2.3% and 5.9%
O=C1Nc2ccc(CCCl)cc2C1=Cc1cccc(F)c1 [10736/G07] |  | 9.4%
O=C1Nc2ccc(CCCl)cc2C1=Cc1ccccc1F [10736/G08] |  | −0.1%
CCc1ccc(C=C2C(=O)Nc3ccc(CCCl)cc32)cc1 [10736/G09] |  | −2.1%
COc1cccc(C=C2C(=O)Nc3ccc(CCCl)cc32)c1 [10736/G10] |  | 6.0%
O=C1Nc2ccc(CCCl)cc2C1=Cc1ccccc1Cl [10736/G11] |  | 0.0%
Cc1c(Br)cc(Br)c2c1C(=Cc1ccc(Cl)cc1)C(=O)N2 [10736/H02] |  | 6.1%
Cc1c(Br)cc(Br)c2c1C(=Cc1ccccc1C(F)(F)F)C(=O)N2 [10736/H03] |  | 15.1%
Cc1cccc(C=C2C(=O)Nc3c(Br)cc(Br)c(C)c32)c1 [10736/H04] |  | 14.0%
Cc1ccc(C=C2C(=O)Nc3c(Br)cc(Br)c(C)c32)cc1 [10736/H05] |  | 16.3%
